# Experimental data reported in patent US20190369111A1, “MOLECULAR KINETICS EVALUATION METHOD AND SCREENING METHOD” (Tokyo University of Science Foundation, priority 2016, published 2019).
# Experiments:
# [1] = target: T1, MDM2 protein (Homo sapiens, UniProt Q00987); assay: Degradation of endogenous MDM2 protein in HCT116 cells, Western blot analysis; format: cell-based; details: 48 hours after addition
# T1 construct: an endogenous wild-type p53 protein and MDM2 protein in HCT116 cells (human large intestine cancer cells); endogenous in cells; host or cells: HCT116 cells
# T1 sequence (Q00987 whole entry): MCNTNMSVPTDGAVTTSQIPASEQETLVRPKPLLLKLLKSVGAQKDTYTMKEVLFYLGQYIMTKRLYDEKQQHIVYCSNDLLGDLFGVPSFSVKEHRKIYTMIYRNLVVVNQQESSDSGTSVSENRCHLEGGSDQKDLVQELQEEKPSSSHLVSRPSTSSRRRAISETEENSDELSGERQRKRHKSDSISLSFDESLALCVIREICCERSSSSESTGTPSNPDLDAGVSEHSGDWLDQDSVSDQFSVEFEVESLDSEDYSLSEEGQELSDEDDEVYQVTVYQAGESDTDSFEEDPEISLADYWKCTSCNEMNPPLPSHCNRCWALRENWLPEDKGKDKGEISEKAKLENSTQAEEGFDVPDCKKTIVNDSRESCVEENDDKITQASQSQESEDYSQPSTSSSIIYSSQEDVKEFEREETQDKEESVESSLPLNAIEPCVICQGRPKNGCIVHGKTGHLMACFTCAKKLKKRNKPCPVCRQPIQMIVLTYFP
# Description: (§1) HCT116 cells were seeded in a 24-well plate at a cell density of 8×10^4 cells/well, and then cultured under conditions of 37° C. and 5 vol % CO2 for 16 hours.
# (§2) After 16 hours from cell seeding, TIBC-CANDDY_MLN or TIBC was added to HCT116 cells as follows. As a medium, a serum-free medium (37° C.) in which 1 mass % L-glutamine solution (Sigma-Aldrich) was added to D-MEM (high D-glucose, phenol red, sodium pyruvate (Wako Pure Chemical Industries, Ltd.)) was used. It is noted that the L-glutamine solution was added immediately before use. A DMSO solution containing TIBC-CANDDY_MLN or TIBC was mixed with the medium so that the concentration of DMSO was 1 vol %, and added to each well at 500 μL/well, and cultured under conditions of 37° C. and 5 vol % CO2. As a control, DMSO was used.
# (§3) The medium was removed 48 hours after addition of TIBC-CANDDY_MLN or TIBC, and then PBS was added to wash the cells. […]
# (§4) After electrophoresis, proteins were transferred to a PVDF membrane (Immobion™-P, Millipore) under conditions of 100 V and 2 hours using a tank-type blotting device and a transfer buffer (25 mM Tris-HCl, 195 mM glycine, 0.01% SDS, 15% methanol). […] Subsequently, the membrane was treated with a chemiluminescence reagent Immobilon™ Western (Millipore), and then chemiluminescence was detected using a lumino image analyzer LAS-3000 (FUJIFILM Corporation).
# [2] = target: endogenous wild-type p53 protein (Homo sapiens, UniProt P04637); assay: Degradation of endogenous wild-type p53 protein in HCT116 cells, Western blot analysis; format: cell-based; set-up: an endogenous wild-type p53 protein and MDM2 protein in HCT116 cells (human large intestine cancer cells); endogenous in cells; host or cells: HCT116 cells; details: 48 hours after addition
# Sequence of endogenous wild-type p53 protein (P04637 whole entry): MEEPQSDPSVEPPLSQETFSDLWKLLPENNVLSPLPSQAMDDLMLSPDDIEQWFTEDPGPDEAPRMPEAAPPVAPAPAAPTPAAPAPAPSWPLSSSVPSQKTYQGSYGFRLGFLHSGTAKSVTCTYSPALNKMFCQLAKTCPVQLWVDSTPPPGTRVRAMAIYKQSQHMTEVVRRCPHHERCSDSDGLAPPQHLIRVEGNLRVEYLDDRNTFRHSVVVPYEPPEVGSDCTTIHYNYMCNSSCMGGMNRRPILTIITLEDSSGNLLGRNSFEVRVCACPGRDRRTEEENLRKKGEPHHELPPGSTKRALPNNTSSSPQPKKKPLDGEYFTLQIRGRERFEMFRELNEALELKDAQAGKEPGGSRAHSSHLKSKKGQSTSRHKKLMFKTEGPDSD
# Description: as §1, §2, §3, §4
smiles,measurement,setting,value
CC(C)C[C@H](NC(=O)CNC(=O)c1cc(Cl)ccc1Cl)C(=O)NCCCCCCC(=O)Nc1ccc(C(=O)/C=C/c2ccc(I)cc2)cc1 [TIBC-CANDDY_MLN],amount of endogenous MDM2 protein,[1],reduced
same,amount of endogenous wild-type p53 protein,[2],reduced
